# Data reported in patent US20110144374A1, “OXIME ETHER DERIVATIVE AND FUNGICIDE FOR AGRICULTURE AND HORTICULTURE” (Nippon Soda Co., Ltd., priority 2008, published 2011).
row,melting point [°C],SMILES
1,104 to 105,"COC(=O)NOc1cc(/C(C)=N/OCc2cccc(F)c2C(F)(F)F)ccc1Cl [Compound 1-13, N-(2-chloro-5-{1-[3-fluoro-2-(trifluoromethyl)benzyloxyimino]ethyl}phenoxy)methyl carbamate]"
2,121 to 122,"COC(=O)NOc1cc(/C(C)=N/OCc2ccccc2I)ccc1Cl [Compound 11-9, N-{2-chloro-5-[1-(2-iodobenzyloxyimino)ethyl]phenoxy}methyl carbamate]"
3,82 to 85,"COC(=O)NOc1cc(/C(C)=N/OCc2ccccc2C(F)(F)F)ccc1C [Compound 21-24, N-{2-methyl-5-[1-(2-trifluoromethylbenzyloxyimino)ethyl]phenoxy}methyl carbamate]"
